The text below walks through data of paper PMC3807862 (Journal of medicinal chemistry, 2013).

For one data set, the target named is human plasma thrombin (Homo sapiens, UniProt P00734). In words: Thrombin inhibition. It counts as biochemical.
A further data set addresses human urine urokinase (Homo sapiens, UniProt P00749). Description: Urokinase inhibition. The data set is classed as biochemical.
Data set [1] is described as follows: Spontaneous hydrolysis in aqueous buffer. It counts as physicochemical. The following applies: 20 μM.
In another data set the target is human plasma kallikrein (Homo sapiens, UniProt P03952). In words: Kallikrein inhibition. The data set is classed as biochemical.
Sequence of human plasma kallikrein (P03952 20-638): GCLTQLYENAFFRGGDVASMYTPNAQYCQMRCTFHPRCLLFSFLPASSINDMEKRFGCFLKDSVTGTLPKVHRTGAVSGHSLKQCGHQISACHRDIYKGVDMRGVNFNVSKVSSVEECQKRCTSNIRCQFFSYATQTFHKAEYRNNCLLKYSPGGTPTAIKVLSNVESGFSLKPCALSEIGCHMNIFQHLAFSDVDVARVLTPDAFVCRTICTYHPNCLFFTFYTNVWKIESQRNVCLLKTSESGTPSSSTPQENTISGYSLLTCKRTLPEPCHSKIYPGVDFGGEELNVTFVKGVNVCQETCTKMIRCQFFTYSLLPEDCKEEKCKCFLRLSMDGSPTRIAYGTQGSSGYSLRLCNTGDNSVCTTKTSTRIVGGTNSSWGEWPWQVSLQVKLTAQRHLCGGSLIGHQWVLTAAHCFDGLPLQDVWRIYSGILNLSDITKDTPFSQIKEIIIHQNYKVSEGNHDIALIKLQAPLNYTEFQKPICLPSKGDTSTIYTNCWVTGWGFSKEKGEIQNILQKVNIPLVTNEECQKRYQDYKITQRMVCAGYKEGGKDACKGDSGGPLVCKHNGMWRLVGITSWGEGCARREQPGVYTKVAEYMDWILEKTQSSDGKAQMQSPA
The target of the next data set is T1, HNE (Homo sapiens, UniProt P08246).
T1 sequence (P08246 30-267): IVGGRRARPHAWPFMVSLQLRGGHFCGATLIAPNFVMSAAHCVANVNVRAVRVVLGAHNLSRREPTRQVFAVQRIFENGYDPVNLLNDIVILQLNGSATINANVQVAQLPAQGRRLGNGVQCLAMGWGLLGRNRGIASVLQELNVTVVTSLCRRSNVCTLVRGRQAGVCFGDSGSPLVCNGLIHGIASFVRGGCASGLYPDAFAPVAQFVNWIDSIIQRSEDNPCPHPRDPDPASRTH
In words: HNE inhibition over time. The data set is classed as biochemical. The following applies: for time to recovery of HNE activity after treatment: up to 5 μM compound; for period of maximal HNE inhibition (during the first x h): 5 μM compound.

In data set [2] the target is T2, Human neutrophil elastase (HNE) (Homo sapiens, UniProt P08246).
T2 sequence (P08246 30-267): T1 sequence (P08246 30-267)
In words: HNE inhibition assay. It counts as biochemical.

In data set [3] the test system is human pancreas chymotrypsin. In words: Chymotrypsin inhibition. It counts as biochemical.

For the compound `Cc1cccc(C(=O)n2nc(C#N)c3ccccc32)c1` [Compound 5b, 1-(3-Methylbenzoyl)-1H-indazole-3-carbonitrile], the “thrombin inhibition (in words)” value on human plasma thrombin is “at micromolar concentrations”. The “urokinase inhibition (in words)” value on human urine urokinase was “at micromolar concentrations”. In data set [1], the “time after which compound was hydrolyzed almost completely” value came to 35 min.
Turning to `COC(=O)c1nn(C(=O)c2ccccc2)c2ccc([N+](=O)[O-])cc12` [Compound 14a, 1-Benzoyl-5-nitro-1H-indazole-3-carboxylic Acid Methyl Ester], the “kallikrein inhibition (in words)” value at human plasma kallikrein is on record as “inhibited kallikrein”. On HNE, the “time to recovery of HNE activity after treatment” value lay within 1 to 2 h.
Turning to `COC(=O)c1nn(C(=O)c2cccc(C)c2)c2ccc([N+](=O)[O-])cc12` [Compound 14b, 1-(3-Methylbenzoyl)-5-nitro-1H-indazole-3-carboxylic Acid Methyl Ester], the “period of maximal HNE inhibition (during the first x h)” value (from here on “period of maximal HNE inhibition”) on HNE worked out at 4 h.
For the compound `CCOC(=O)c1nn(C(=O)c2ccsc2)c2ccc([N+](=O)[O-])cc12` [Compound 14h, 5-Nitro-1-(thiophene-3-carbonyl)-1H-indazole-3-carboxylic Acid Ethyl Ester], the “time to recovery of HNE activity after treatment” value at HNE lay within 1 to 2 h.
Consider `COC(=O)c1nn(C(=O)c2cccc(C)c2)c2cc([N+](=O)[O-])ccc12` [Compound 15, 1-(3-Methylbenzoyl)-6-nitro-1H-indazole-3-carboxylic Acid Methyl Ester], for which the “period of maximal HNE inhibition” value on HNE worked out at 4 h.
Regarding `COC(=O)c1nn(C(=O)c2cccc(C)c2)c2c([N+](=O)[O-])cccc12` [Compound 16, 1-(3-Methylbenzoyl)-7-nitro-1H-indazole-3-carboxylic Acid Methyl Ester], in data set [2], the “HNE inhibitory activity (in words)” value is “inactive”.
As to `CCOC(=O)c1nn(C(=O)c2cccc(C)c2)c2ccc(NC(C)=O)cc12` [Compound 20a, 5-Acetylamino-1-(3-methylbenzoyl)-1H-indazole-3-carboxylic Acid Ethyl Ester], the “period of maximal HNE inhibition” value at HNE turned out to be 4 h.
A word on the IC50: it is the concentration that inhibits the measured activity by half. Low readings indicate inhibition by little substance, high ones a need for much substance. In data set [2], `CCOC(=O)c1nn(C(=O)c2cccc(C)c2)c2ccc(NC(=O)C3CC3)cc12` [Compound 20f, 5-(Cyclopropanecarbonylamino)-1-(3-methylbenzoyl)-1H-indazole-3-carboxylic Acid Ethyl Ester] displayed an IC50 of roughly 0.01 µM. For the same compound, the “chymotrypsin inhibition (in words)” value in data set [3] is “lowest activity for this enzyme”. Moreover, the “urokinase inhibition (in words)” value at human urine urokinase is reported as “no inhibitory activity”. Besides, the “period of maximal HNE inhibition” value at HNE worked out at 5 h.
For `CCOC(=O)c1nn(C(=O)c2ccccc2)c2ccc(OC)cc12` [Compound 31d, 1-Benzoyl-5-methoxy-1H-indazole-3-carboxylic Acid Ethyl Ester], the “increase of HNE inhibitory activity compared to the reference compounds A and F” value in data set [2] is listed as 2-3 fold.
With `CCOC(=O)c1nn(C(=O)c2cccc(C)c2)c2ccc(OC(F)(F)F)cc12` [Compound 31g, 1-(3-Methylbenzoyl)-5-trifluoromethoxy-1H-indazole-3-carboxylic Acid Ethyl Ester], in data set [2], the “increase of HNE inhibitory activity compared to the reference compounds A and F” value was 2-3 fold.
